Patent US7407745B1, “Method for screening anticancer agent” (Chugai Seiyaku Kabushiki Kaisha, priority 1999, dated 2008)

Experiments:
[1] = tested on: all-trans-retinoic acid resistant acute promyelocytic leukemia; conditions: in combination with all-trans retinoic acid; cited from earlier work
[2] = tested on: consensus Sp1 binding sequence; assay: Luciferase reporter assay of 3xSp1 binding sequence (Sp1-luc, mtSp1-luc) with dominant negative Sp3, MG63 cells; assay type: cell-based, human
p21/WAF1/Cip1 promoter = assay: Luciferase reporter assay of p21/WAF1/Cip1 promoter (pWWP, pWPdel-BstXI) with dominant negative Sp3, MG63 cells; assay type: cell-based, human; conditions: pWWP and pWPdel-BstXI reporters, forced expression of DNSp3 (pCMV-DNSp3), TSA 500 ng/ml
[3] = tested on: GAL4-Sp3 deletion mutant proteins; assay: Reporter assay using the GAL4 binding sequence (pG5-luc), GAL4-Sp3 deletion mutants, MG63 cells; assay type: cell-based, human; conditions: TSA 500 ng/ml, 24 hours
From the text: (§1) This yielded pM-Sp1, pM-Sp3, pM-DNSp1, and pM-DNSp3, respectively. Each of the Sp1 and Sp3 genes was amplified by PCR. Specifically, pM-Sp1 production employed Sp1-S (5′-acaggtgagcttga-3′/SEQ ID NO: 4) and Sp1-AS (5′-tcagaagccattgcc-3′/SEQ ID NO: 5) as primers and used pPacSp1 as template for amplification (Kadonaga, J. T. et al., (1987) Cell 51:1079-1090). pM-DNSp1 production employed DNSp1-S (5′-[…]-3′/SEQ ID NO: 6) and DNSp1-AS (5′-gaagcatgcacctgc-3′/SEQ ID NO: 7) as primers and used pM-Sp1 as template for amplification (Kadonaga, J. T. et al., (1987) Cell 51: 1079-1090). pM-Sp3 production employed Sp3-18F (5′-[…]-3′/SEQ ID NO: 8) and Sp3-2R (5′-[…]-3′/SEQ ID NO: 9) as primers and used Marathon-Ready cDNA (Human Fetal Liver) (Clontech, Cat. #7403-1) as template for amplification (Chris, K. et al., (1992) J. Biol. Chem. 12: 4251-4261). pM-DNSp3 production employed Sp3-11F (5′-[…]-3′/SEQ ID NO: 10) and Sp3-2R (SEQ ID NO: 9) as primers and used pM-Sp3 as template for amplification (Chris, K. et al., (1992) J. Biol. Chem. 12: 4251-4261). All PCRs were carried out by performing 30 cycles of 94° C. for 1 minute, 55° C. for 30 seconds, and 72° C. for 30 seconds. The resulting PCR amplified product was inserted into a pM vector and the nucleotide sequence was confirmed using a DNA sequencer, ABI PRISM 355 (Applied Bio System). As a control for the transfection test, pM that only expresses the GAL4 DNA binding domain was employed. The reporter plasmid (pG5-luc) used to indicate the dependence of transcriptional activation, on GAL4 was pGL3-Basic Vector (Promega), which carried the 5×GAL4 binding sequence, E1B minimum promoter, and TATA sequence, upstream of the luciferase gene.
The expression vector described above encoding various Sp1 or Sp3 GAL4 fusion proteins and the abovementioned vector carrying a luciferase reporter gene downstream of the consensus 5×GAL4 binding sequence were cotransfected into MG63 cells using SuperFect following the method by QIAGEN. Namely, cells were seeded at a density of 0.8×10^5 cells/well in a 12-well plate. After 24 hours, a pre-mixed reaction solution containing 0.5 μg of reporter plasmid, 2.5 μg of expression vector, and SuperFect were added to the MG63 cells and the mixture was reacted for 2 hours. Subsequently, the cells were cultured for 24 hours under normal culture conditions, cultured for another 24 hours with or without (control) 500 ng/ml of TSA, and then, the cells were lysed. Using luciferase substrate (Promega), luciferase activity of the cell lysates was measured using LB-96P (Berthold). The measured values were normalized and were expressed as activity per amount of protein. Transcriptional induction due to TSA treatment was calculated as a ratio with respect to the TSA-untreated control value (activation amplification by TSA).
Next, reporter assay was performed using various Sp3 deletion mutants fused to the GAL4 DNA binding domain in order to identify the TSA responsive region of Sp3. First, pM-Sp3 (1-398), pM-Sp3 (81-398), pM-Sp3 (161-398), pM-Sp3 (241-398), pM-Sp3 (1-80), pM-Sp3 (1-160), pM-Sp3 (1-240), and pM-Sp3 (1-320) were prepared. They respectively carry regions corresponding to the indicated amino acid numbers. […]
As a control for the transfection test, pM expressing only the GAL4 DNA binding domain was used. […] Transfection using these genes followed the same method as described above, and the occurrence of transcriptional induction due to TSA treatment in these mutants was monitored.

GAL4-Sp3 = assay: Reporter assay using the GAL4 binding sequence (pG5-luc), GAL4-Sp3, MG63 cells; assay type: cell-based, human; conditions: GAL4-Sp3 (full-length Sp3, amino acids 1-653), TSA 500 ng/ml, 24 hours
From the text: as §1, with “As a control for the transfection test, pM that only expresses the GAL4 DNA binding domain was employed. The reporter plasmid (pG5-luc) used to indicate the dependence of transcriptional activation, on GAL4 was pGL3-Basic Vector (Promega), which carried the 5×GAL4 binding sequence, E1B minimum promoter, and TATA sequence, upstream of the luciferase gene.” left out

[4] = tested on: Sp1 binding sequence in the p21/WAF1/Cip1 promoter; assay: Gel shift assay (EMSA) with nuclear extracts of TSA-treated and untreated MG63 cells; design: species or system human; conditions: 500 ng/ml TSA for 24 hours vs untreated
Procedure: First, MG63 cells were incubated at 37° C. in a humidified atmosphere of 5% CO2 using DMEM medium (GIBCO BRL) containing 10% fetal calf serum (GIBCO BRL). Nuclear extracts of these cells were prepared from both TSA-treated and untreated cells, according to the method of Dignam et al. (Dignam, J. D. et al., (1983) Nucleic Acids Res. 11:1475-1489). First, cells cultured in a dish (100 mm) were incubated for 24 hours with 500 ng/ml TSA (Wako). This was then washed twice with cold PBS containing 0.5 mM 4-(2-aminoethyl)benzenesulfonyl fluoride HCl (p-ABSF) (Wako), the cells were scraped from the plate, and suspended in 10 mM Hepes/KOH buffer (pH7.9) containing 10 mM KCl, 1.5 mM MgCl2, 0.5 mM DTT, 5 mM NaF, 5 mM NaVO4, and 0.5 mM p-ABSF. After placing on ice for 10 minutes, the cells were disrupted using a Dounce homogenizer. […]
Next, based on the TSA-dependent promoter sequence (5′-CGGGTCCCGCCTCCTT-3′/SEQ ID NO: 1) located −87 to −72 bp from the transcription start site of the p21/WAF1/Cip1 gene, oligonucleotides (5′-[…]-3′/SEQ ID NO: 2, and 5′-[…]-3′/SEQ ID NO: 3) were synthesized. […] The reaction solution was resolved by electrophoresis on a 6% acrylamide gel and the proteins that bind to the p21/WAF1/Cip1 probe were detected using BAS 2000 (Fujix).

Row | Molecule | remission of leukemia [1] | TSA dependent transcriptional induction driven by the consensus Sp1 binding sequence ([2]; Sp1-luc reporter, forced expression of DNSp3, TSA 500 ng/ml) | transcriptional induction by TSA ([2]; mtSp1-luc reporter (mutated Sp1 binding sequence), TSA 500 ng/ml) | transcriptional induction of p21/WAF1/Cip1 by TSA (p21/WAF1/Cip1 promoter) | TSA dependent transcriptional induction ([3]; GAL4-DNSp3 (amino acids 399-653)) | TSA dependent transcriptional induction ([3]; GAL4-Sp3 (1-80)) | TSA dependent transcriptional induction ([3]; GAL4-Sp3 (1-398)) | TSA dependent transcriptional induction ([3]; GAL4-Sp3 (81-160) alone) | TSA dependent transcriptional induction ([3]; GAL4-Sp3 (241-398)) | transcriptional induction of the luciferase gene by TSA (ratio to TSA-untreated control) (GAL4-Sp3) | amount of DNA bound by Sp1 and Sp3 [4]
1 | sodium phenylbutyrate | complete remission |  |  |  |  |  |  |  |  |  | 
2 | CC(/C=C/C(=O)NO)=C\[C@@H](C)C(=O)c1ccc(N(C)C)cc1 [TSA, Trichostatin A] |  | marked repression | did not take place | remarkably repressed by DNSp3 | no longer showed TSA dependent transcriptional induction | induction due to TSA treatment disappeared | stronger than with GAL4-Sp3 | almost no activity | induction due to TSA treatment disappeared | strong transcriptional induction | a difference in the amount of DNA bound by Sp1 and Sp3 due to the presence or absence of TSA treatment could not be observed
